pEC50: −log10 of the molar value. Like-named read-outs stand apart in the source and are kept apart here. Starred links: 1 amine or outer side, 2 acyl side, 3 side chain; linkers in the order of their positions; H or OH if unused. Non-standard residues stand in square brackets, D forms with d. Groups on a side chain read outwards from the residue. *: point of attachment. C18 diacid = O=C(O)CCCCCCCCCCCCCCCCC(=O)*; αMePhe(2-F) = C[C@](N)(Cc1ccccc1F)C(=O)O; γGlu = O=C(O)[C@H](CCC(=O)[*:2])N[*:1]; αMe4Pal = C[C@](N)(Cc1ccncc1)C(=O)O; αMeY = C[C@](N)(Cc1ccc(O)cc1)C(=O)O; 4Pal = N[C@@H](Cc1ccncc1)C(=O)O; αMeL = CC(C)C[C@](C)(N)C(=O)O; αMeS = C[C@](N)(CO)C(=O)O; Orn = NCCC[C@H](N)C(=O)O; Aib = CC(C)(N)C(=O)O
Columns and labels:
Format in all cases: cell-based
hGcgR = hGcgR (Homo sapiens, UniProt P47871); assay: Functional cAMP activation in the presence of 0.1% casein (no HSA);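 also: intracellular cAMP rise after 30 min at 37 °C, read by HTRF against a cAMP standard curve, scaled from buffer only (0%) to maximal control ligand response (100%)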
hGIPR [1] = biological target: T1, hGIPR (Homo sapiens, UniProt P48546); assay: as above;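 also: intracellular cAMP rise after 30 min at 37 °C read by HTRF against a standard curve, scaled between buffer alone (0%) and top control ligand concentration (100%), four-parameter fit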
T1 sequence (P48546 22-466): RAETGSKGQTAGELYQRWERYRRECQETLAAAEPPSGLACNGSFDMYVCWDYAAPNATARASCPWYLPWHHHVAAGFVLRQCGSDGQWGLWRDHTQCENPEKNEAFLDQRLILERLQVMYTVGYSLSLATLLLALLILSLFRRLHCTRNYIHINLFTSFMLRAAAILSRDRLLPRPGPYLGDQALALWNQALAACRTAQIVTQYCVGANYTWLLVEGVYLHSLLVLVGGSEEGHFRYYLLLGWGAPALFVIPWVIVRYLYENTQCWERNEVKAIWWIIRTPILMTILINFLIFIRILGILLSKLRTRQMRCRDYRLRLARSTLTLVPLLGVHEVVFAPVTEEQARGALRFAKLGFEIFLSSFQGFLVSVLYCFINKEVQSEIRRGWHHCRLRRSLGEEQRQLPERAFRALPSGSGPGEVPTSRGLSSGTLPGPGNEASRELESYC

hGIPR [2] = biological target: T1, hGIPR; assay: Functional cAMP activity in the presence of 1% HSA; conditions: read-out: cAMP Rel EC50, hGIPR
human GcgR = human GcgR (Homo sapiens, UniProt P47871); assay: Functional cAMP activity in the presence of 1% HSA
hGLP-1R [3] = biological target: T2, hGLP-1R (Homo sapiens, UniProt P43220); assay: Functional cAMP activity in the presence of 1% HSA; conditions: read-out: cAMP Rel EC50, hGLP-1R
hGLP-1R [4] = biological target: T2, hGLP-1R; assay: Functional cAMP activation in the presence of 0.1% casein (no HSA);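 as to Relative cAMP EC50, hGIPR: intracellular cAMP rise after 30 min at 37 °C read by HTRF against a standard curve, scaled between buffer alone (0%) and top control ligand concentration (100%), four-parameter fit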;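 as to Relative cAMP EC50, hGLP-1R: intracellular cAMP rise after 30 min at 37 °C read by HTRF, normalized between buffer only (0%) and maximal control ligand (100%), four-parameter variable-slope fit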
[5] = read-out: Relative cAMP EC50, hGcgR
[6] = read-out: Relative cAMP EC50, hGIPR
[7] = read-out: Relative cAMP EC50, hGLP-1R
[8] = 0.1% casein, no HSA, geometric mean, read-out: Relative cAMP EC50, hGcgR
[9] = 0.1% casein, no HSA, geometric mean, read-out: Relative cAMP EC50, hGIPR
[10] = 0.1% casein, no HSA, geometric mean, read-out: Relative cAMP EC50, hGLP-1R

hGcgR, sequence (P47871 26-477): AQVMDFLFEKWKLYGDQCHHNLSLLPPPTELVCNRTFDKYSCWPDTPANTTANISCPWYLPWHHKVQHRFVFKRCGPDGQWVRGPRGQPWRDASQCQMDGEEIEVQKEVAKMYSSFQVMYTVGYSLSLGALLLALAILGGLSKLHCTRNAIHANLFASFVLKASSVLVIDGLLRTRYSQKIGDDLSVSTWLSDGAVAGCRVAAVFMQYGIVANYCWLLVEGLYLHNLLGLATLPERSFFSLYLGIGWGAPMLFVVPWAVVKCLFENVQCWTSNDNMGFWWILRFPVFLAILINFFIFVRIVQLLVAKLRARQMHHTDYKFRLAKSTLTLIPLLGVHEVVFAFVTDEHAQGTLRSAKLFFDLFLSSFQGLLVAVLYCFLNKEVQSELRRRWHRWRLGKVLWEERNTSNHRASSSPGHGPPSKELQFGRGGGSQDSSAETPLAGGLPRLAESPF
human GcgR, sequence (P47871 26-477): as above
T2 sequence (P43220 24-463): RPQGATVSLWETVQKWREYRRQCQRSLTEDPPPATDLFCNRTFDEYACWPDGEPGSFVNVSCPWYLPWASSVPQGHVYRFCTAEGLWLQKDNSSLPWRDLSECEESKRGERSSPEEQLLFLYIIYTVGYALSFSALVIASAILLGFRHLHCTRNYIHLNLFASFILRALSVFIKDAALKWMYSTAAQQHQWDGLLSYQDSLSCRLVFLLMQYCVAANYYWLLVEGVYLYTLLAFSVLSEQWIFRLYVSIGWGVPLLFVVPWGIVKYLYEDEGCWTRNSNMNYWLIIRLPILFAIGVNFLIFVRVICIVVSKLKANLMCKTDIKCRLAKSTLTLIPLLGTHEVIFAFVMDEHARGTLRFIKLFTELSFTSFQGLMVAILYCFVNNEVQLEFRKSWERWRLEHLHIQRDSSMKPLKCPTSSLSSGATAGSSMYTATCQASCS

Substance	pEC50 (hGcgR; [5])	pEC50 (hGIPR [1]; [6])	pEC50 (hGIPR [2])	pEC50 (human GcgR; read-out: cAMP Rel EC50, hGcgR)	pEC50 (hGLP-1R [3])	pEC50 (hGLP-1R [4]; [7])	pEC50 (hGcgR; [8])	pEC50 (hGIPR [1]; [9])	pEC50 (hGLP-1R [4]; [10])	pEC50 (hGcgR)	pEC50 (hGIPR [1])	pEC50 (human GcgR)	pEC50 (hGLP-1R [4])
H-Y[Aib]QGT[αMePhe(2-F)]TSD[4Pal][αMeS]I[αMeL]LD[Orn]K([γGlu-γGlu-C18 diacid])AQ[Aib][Orn]FI[dE][αMeY]LSEGGPSSGEPPPSGAEE-NH2 [Example 567]	8.23	9.78	7.87	6.28	6.99	8.97	–	–	–	–	–	–	–
H-Y[Aib]QGT[αMePhe(2-F)]TSD[4Pal][αMeS]I[αMeL]LD[Orn]K([γGlu-γGlu-C18 diacid])AQ[Aib][Orn]FI[dE][αMeY]LSEGGPSSGEPPPSGGE-NH2 [Example 559]	8.39	9.92	8.04	6.49	7.30	9.27	–	–	–	–	–	–	–
H-Y[Aib]QGT[αMePhe(2-F)]TSD[4Pal][αMeS]I[αMeL]LD[Orn]K([γGlu-γGlu-C18 diacid])AQ[Aib][Orn]FI[dE][αMeY]LSEGGPSSGEPPPSGGEE-NH2 [Example 568]	8.21	9.90	7.88	6.32	6.94	9.01	–	–	–	–	–	–	–
H-Y[Aib]QGT[αMePhe(2-F)]TSD[4Pal][αMeS]I[αMeL]LD[Orn]K([γGlu-γGlu-C18 diacid])AQ[Aib][Orn]FI[dE][αMeY]LSEGGPSSGEPPPSGQEE-NH2 [Example 570]	8.23	9.73	7.87	6.19	7.02	8.99	–	–	–	–	–	–	–
H-Y[Aib]QGT[αMePhe(2-F)]TSD[4Pal][αMeS]I[αMeL]LD[Orn]K([γGlu-γGlu-C18 diacid])AQ[Aib][Orn]FI[dE][αMeY]LSEGGPSSGEPPPSGSE-NH2 [Example 560]	8.42	9.95	8.10	6.45	7.28	9.05	–	–	–	–	–	–	–
H-Y[Aib]QGT[αMePhe(2-F)]TSD[4Pal][αMeS]I[αMeL]LD[Orn]K([γGlu-γGlu-C18 diacid])AQ[Aib][Orn]FI[dE][αMeY]LSEGGPSSGEPPPSGTE-NH2 [Example 517]	8.33	9.80	8.04	6.47	7.30	9.19	–	–	–	–	–	–	–
H-Y[Aib]QGT[αMePhe(2-F)]TSD[4Pal][αMeS]I[αMeL]LD[Orn]K([γGlu-γGlu-C18 diacid])AQ[Aib][Orn]FI[dE][αMeY]LSEGGPSSGEPPPSGTEE-NH2 [Example 561]	8.27	9.67	8.00	6.26	7.12	8.95	–	–	–	–	–	–	–
H-Y[Aib]QGT[αMePhe(2-F)]TSD[4Pal][αMeS]I[αMeL]LD[Orn]K([γGlu-γGlu-C18 diacid])AQ[Aib][Orn]FI[dE][αMeY]LSEGGPSSGEPPPSGTEEE-NH2 [Example 562]	8.22	9.55	7.99	6.37	7.05	8.78	–	–	–	–	–	–	–
H-Y[Aib]QGT[αMePhe(2-F)]TSD[4Pal][αMeS]I[αMeL]LD[Orn]K([γGlu-γGlu-C18 diacid])AQ[Aib][Orn]FI[dE][αMeY]LSEGGPSSGEPPPSGTGE-NH2 [Example 518]	8.41	9.89	8.15	6.58	7.29	9.06	–	–	–	–	–	–	–
H-Y[Aib]QGT[αMePhe(2-F)]TSD[4Pal][αMeS]I[αMeL]LD[Orn]K([γGlu-γGlu-C18 diacid])AQ[Aib][Orn]FI[dE][αMeY]LTEGGPSSGEPPPEGTEEE-NH2 [Example 598]	8.06	10.03	8.46	6.34	7.33	9.05	–	–	–	–	–	–	–
H-Y[Aib]QGT[αMePhe(2-F)]TSD[4Pal][αMeS]I[αMeL]LD[Orn]K([γGlu-γGlu-C18 diacid])AQ[Aib][Orn]FI[dE][αMeY]LTEGGPSSGEPPPSGTE-NH2 [Example 542]	8.30	10.47	8.77	6.59	7.53	9.41	–	–	–	–	–	–	–
H-Y[Aib]QGT[αMePhe(2-F)]TSD[4Pal][αMeS]I[αMeL]LD[Orn]K([γGlu-γGlu-C18 diacid])AQ[Aib][Orn]FI[dE][αMeY]LTEGGPSSGEPPPSGTGE-NH2 [Example 543]	8.34	10.50	8.73	6.52	7.49	9.39	–	–	–	–	–	–	–
H-Y[Aib]QGT[αMePhe(2-F)]TSD[4Pal][αMeS]I[αMeL]LD[Orn]K([γGlu-γGlu-C18 diacid])AQ[αMe4Pal]EFI[dE][αMeY]LIEGGPPS[Aib][Orn]PPP[Orn]GE-NH2 [Example 1227]	–	–	9.28	6.70	7.40	–	8.70	11.21	9.41	–	–	–	–
H-Y[Aib]QGT[αMePhe(2-F)]TSD[4Pal][αMeS]I[αMeL]LD[Orn]K([γGlu-γGlu-C18 diacid])AQ[αMe4Pal]EFI[dE][αMeY]LIEGGPPS[Aib][Orn]PPP[Orn]GS-NH2 [Example 1226]	–	–	9.35	6.74	7.46	–	8.78	11.27	9.58	–	–	–	–
H-Y[Aib]QGT[αMePhe(2-F)]TSD[4Pal][αMeS]I[αMeL]LD[Orn]K([γGlu-γGlu-C18 diacid])AQ[αMe4Pal]EFI[dE][αMeY]LIEGGPPS[Aib][Orn]PPP[Orn]SE-NH2 [Example 1228]	–	–	9.28	6.73	7.41	–	8.70	11.17	9.42	–	–	–	–
H-Y[Aib]QGT[αMePhe(2-F)]TSD[4Pal][αMeS]I[αMeL]LD[Orn]K([γGlu-γGlu-C18 diacid])AQ[αMe4Pal]EFI[dE][αMeY]LIEGGPSSGAPPPEGGGEE-NH2 [Example 1220]	–	–	9.22	6.77	7.31	–	8.80	11.00	9.17	–	–	–	–
H-Y[Aib]QGT[αMePhe(2-F)]TSD[4Pal][αMeS]I[αMeL]LD[Orn]K([γGlu-γGlu-C18 diacid])AQ[αMe4Pal]EFI[dE][αMeY]LIEGGPSSGAPPPEGTGE-NH2 [Example 764]	–	–	9.19	–	7.41	–	–	–	–	8.79	11.20	6.84	9.54
H-Y[Aib]QGT[αMePhe(2-F)]TSD[4Pal][αMeS]I[αMeL]LD[Orn]K([γGlu-γGlu-C18 diacid])AQ[αMe4Pal]EFI[dE][αMeY]LIEGGPSSGAPPPSGGGEE-NH2 [Example 1218]	–	–	9.20	6.73	7.31	–	8.73	11.08	9.24	–	–	–	–
H-Y[Aib]QGT[αMePhe(2-F)]TSD[4Pal][αMeS]I[αMeL]LD[Orn]K([γGlu-γGlu-C18 diacid])AQ[αMe4Pal]EFI[dE][αMeY]LIEGGPSSGAPPPSGGGEEE-NH2 [Example 1219]	–	–	9.20	6.77	7.33	–	8.79	11.00	9.20	–	–	–	–
